We go through 81 compounds from the METLIN SMRT retention time set (Domingo-Almenara et al. 2019).

The nature of this series: gradient 5% acetonitrile 3 min, to 50% in 2 min, to 85% in 15 min, held 3 min, 100 µL/min. Particulars: column: Zorbax Extend-C18 2.1 x 50 mm; eluents: water / acetonitrile, 0.1% formic acid. Put shortly: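 Mixtures of ~100 pure standards were chromatographed on a Zorbax Extend-C18 column (2.1 × 50 mm, 1.8 μm) at 100 μL/min using water and acetonitrile, each with 0.1% formic acid. Detection used a quadrupole time-of-flight mass spectrometer in positive and negative ionization mode, and data collection spanned 3 months. Retention time was obtained from adduct peaks picked computationally and each checked manually.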
`CCCN1C(=O)COc2ccc(-c3noc(-c4cccc(OC)c4OC)n3)cc21`: the RP-LC retention time came to 1160 s.

The compound `CCN(C(=O)Cc1c(C(=O)O)c(C)cn1CC)c1cccc(Cl)c1` returned an RP-LC retention time of 839 s.

On to `CCOC(=O)CCc1c(C)c2c(O)cc(O)cc2oc1=O`, for which the RP-LC retention time came to 701 s.

Regarding `CCc1cccc(C)c1NC(=O)Cn1cnc2nc(N3CCC(C(=O)NC4CC4)CC3)sc2c1=O`, the RP-LC retention time was found to be 686 s.

In turn, `CCOC(=O)C1CCN(S(=O)(=O)c2c(C)nc3sc(C)nn23)CC1` registered an RP-LC retention time of 804 s.

With `Cc1ccc(C)c(-c2coc(-c3ccc(NC(=O)NCc4ccco4)cc3)n2)c1`, the RP-LC retention time was determined as 1110 s.

Compound `O=C(c1ccsc1)N1CCCN(c2cc(-c3ccccc3)[nH]n2)CC1` returned an RP-LC retention time of 741 s.

Compound `CC(C)CCN(C1CCOCC1)C1CCN(C(=O)Nc2cccc(F)c2)CC1` returned an RP-LC retention time of 650 s.

Consider `C=CCNC(=O)C1CCCN(C(=O)Nc2ccc(NC(=O)Nc3ccc(C)c(C)c3)cc2)C1` (stereo unspecified), for which the RP-LC retention time came to 766 s.

Regarding `Cc1nc(-c2csc(S(=O)(=O)N3CCC(C(=O)NC(C)Cc4ccco4)CC3)c2)no1` (stereo unspecified), the RP-LC retention time was 843 s.

With `Cc1nc(CC(=O)NC(C)c2ccccc2)sc1C(=O)NCc1ccccc1` (stereo unspecified), the RP-LC retention time was determined as 820 s.

Consider `CC(C)OC(=O)COC(=O)c1cn(-c2cccc(Cl)c2)c(=O)c2ccccc12`, for which the RP-LC retention time came out at 1140 s.

Regarding `Cc1ccccc1Cn1cc(-c2ccncc2)cc1C(=O)N1CCOCC1`, the RP-LC retention time turned out to be 621 s.

In turn, `Cc1cc(C(=O)N2CCCn3ccnc3C2C2CCCC2)on1` (stereo unspecified) returned an RP-LC retention time of 599 s.

`O=c1n(Cc2ccccc2)nc2c(S(=O)(=O)N3CCCCCC3)cccn12` showed an RP-LC retention time of 948 s.

The compound `CCn1cc2c3c(cccc31)CN(C(=O)Nc1ccc(C)cc1)CC2` gave an RP-LC retention time of 978 s.

`COC(=O)c1ncn2c1C(=O)N(CCc1ccccc1)C(C)(C(=O)NC1CCCC1)C2` (stereo unspecified): the RP-LC retention time was 738 s.

On to `Cn1c(=O)n(C)c2cc(CNc3ccc(O)cc3)ccc21`, for which the RP-LC retention time worked out at 1190 s.

With `O=C(CN1CCCC1=O)NCc1ccccc1C(F)(F)F`, the RP-LC retention time was found to be 680 s.

In turn, `COc1ccc(NC(=O)c2cccn(C)c2=O)cc1N1CCCC1=O` came in with an RP-LC retention time of 618 s.

For the compound `COc1ccccc1CCC(=O)N1C[C@@H]2C[C@H](NC(=O)c3cccs3)[C@H]1C2`, the RP-LC retention time came to 782 s.

`COc1ccc(N2CCN(C(=O)C34CCC(C)(C(=O)C3)C4(C)C)CC2)cc1` (stereo unspecified): the RP-LC retention time worked out at 784 s.

`O=C(CSc1ccc(-n2ccnc2)nn1)NC1CCCCC1` returned an RP-LC retention time of 564 s.

The compound `COc1ccc(Cc2nnc(SCC(=O)Nc3nc(-c4ccccc4)c(C)s3)o2)cc1` gave an RP-LC retention time of 1020 s.

The compound `CCCNC(=O)N1CC(Oc2cccc(-c3nc(C)no3)c2)C1` registered an RP-LC retention time of 730 s.

Turning to `Cc1ccc(-c2[nH]ncc2CN2CCn3c(nn(C)c3=O)C2)cc1C`, the RP-LC retention time worked out at 638 s.

In the case of `Cc1noc(-c2ccnc(-n3ncc(C(=O)N4CCSCC4)c3C)c2)n1`, the RP-LC retention time worked out at 785 s.

`CCc1ccc(CNC(=O)C2CCCN(c3ccc(=O)n(-c4ccc(OC)cc4)n3)C2)cc1` (stereo unspecified): the RP-LC retention time turned out to be 871 s.

In the case of `CCn1ccc2c(cc(C(=O)Nc3cc(C)ccc3C)n2C)c1=O`, the RP-LC retention time was 721 s.

Take `Cc1ccc(Cl)cc1NC(=O)N(C)CC1CCOCC1`: the RP-LC retention time was 761 s.

Turning to `Cc1cccc(-c2nnc(CC(=O)NC3CCCCC3)o2)c1`, the RP-LC retention time was 817 s.

As to `Cc1cc(S(=O)(=O)N2CC[C@H](n3c(=O)n(C)c4cccnc43)C2)ccc1F`, the RP-LC retention time turned out to be 864 s.

Regarding `Cc1noc(COC2CCCN(C(=O)C3(c4ccccc4)CC3)C2)n1` (stereo unspecified), the RP-LC retention time was 791 s.

Regarding `COc1ccc(CNC(=O)Cc2cn(C)c3ncccc23)cc1OC`, the RP-LC retention time came out at 616 s.

`Cc1ccc(C(=O)NCc2nc(-c3ccc4c(c3)ncn4C3CCCC3)no2)cc1` returned an RP-LC retention time of 719 s.

Regarding `COc1cccc(-c2nc(C3CCN(C(=O)c4n[nH]c5c4CCCC5)CC3)no2)c1`, the RP-LC retention time is 847 s.

`CC(C)OCCCNC(=O)CC1=C2CCCCC2NC1=O` (stereo unspecified) registered an RP-LC retention time of 628 s.

On to `CSc1cccc(NC(=O)C2CCN(C(=O)c3ncn4c3COC(c3ccc(F)cc3)C4)CC2)c1` (stereo unspecified), for which the RP-LC retention time worked out at 849 s.

Turning to `Cc1nc(C2CC23CCN(S(=O)(=O)c2cccnc2)CC3)no1` (stereo unspecified), the RP-LC retention time is 726 s.

Turning to `Cc1ccccc1-c1noc(C2CCCN2C(=O)Nc2cc(F)ccc2F)n1` (stereo unspecified), the RP-LC retention time was found to be 1080 s.

Regarding `CCc1nc2c(=O)n(CC(=O)N3CCN(c4cc(C)ccc4C)CC3)nc(C)c2s1`, the RP-LC retention time is 911 s.

`Cn1nc(N2CCC(NC(=O)c3nccc4ccccc34)C2)ccc1=O` (stereo unspecified) had an RP-LC retention time of 695 s.

In turn, `CC(C)(C)NC(=O)Cn1ccn2nc(-c3ccc(F)cc3)c(CO)c2c1=O` displayed an RP-LC retention time of 738 s.

Compound `COc1ccc(NC(=O)CN2C(=O)NC3(CCCCC3)C2=O)cc1Cl` gave an RP-LC retention time of 778 s.

Consider `COc1cccc(Nc2nnc(CC(=O)N3CCSCC3)s2)c1`, for which the RP-LC retention time was determined as 676 s.

Regarding `O=C(NCCCCCCCCNC(=O)c1cccc2ccccc12)c1cccc2ccccc12`, the RP-LC retention time amounted to 1010 s.

Take `C=C1C[C@@]23CC[C@H]4[C@@](C)(CCC[C@@]4(C)C(=O)O)[C@@H]2CC[C@]1(O)C3`: the RP-LC retention time was 1030 s.

Consider `COc1ccc(OC)c(S(=O)(=O)N2CCCC(C(=O)NCCC(C)C)C2)c1` (stereo unspecified), for which the RP-LC retention time was found to be 863 s.

Compound `CCOC(=O)c1cc(-c2ccc(S(=O)(=O)N3CCN(c4ccccn4)CC3)s2)on1` gave an RP-LC retention time of 809 s.

On to `Cc1ccc(NC(=O)Cn2cnc3c(c2=O)CCCC3)cc1`, for which the RP-LC retention time stood at 710 s.

`Cc1ccc(-c2nc3n(CC(=O)N4CCCC4)c4c(c(=O)n3n2)CCC4)cc1` showed an RP-LC retention time of 752 s.

Compound `Cc1ccc(S(=O)(=O)N2CCc3ccc(NC(=O)Cc4cccs4)cc3C2)cc1` registered an RP-LC retention time of 942 s.

On to `CCN(CC)c1nc(C(=O)N2CCN(c3ccccn3)CC2)nc2nc(C)cc(C)c12`, for which the RP-LC retention time stood at 570 s.

Regarding `COc1ccc(N2C=C(C#N)S(=O)(=O)c3ccc(F)cc32)cc1OC`, the RP-LC retention time amounted to 893 s.

As to `Cc1csc(-c2cc(S(=O)(=O)NCCCN3CCOCC3)cn2CC(=O)N2CCCCC2)n1`, the RP-LC retention time amounted to 667 s.

Regarding `O=C(NCCc1cccs1)c1cccc2[nH]cc(CN3CCOCC3)c12`, the RP-LC retention time was determined as 592 s.

As to `COc1ccc(NC(=O)c2c(O)c3sccc3n(C)c2=O)cc1Cl`, the RP-LC retention time amounted to 1170 s.

For `Nn1c(Cc2ccccc2)nnc1Cc1ccccc1`, the RP-LC retention time stood at 744 s.

`COCCN1CCC2(CC1)CN(Cc1ccc(Cl)c(F)c1)Cc1ccccc1O2` came in with an RP-LC retention time of 751 s.

Consider `CCn1c(=O)c(N2CCC(NC(=O)NC3CCCCC3)CC2)nc2ccccc21`, for which the RP-LC retention time turned out to be 831 s.

`Cc1c(C(=O)Nc2ccnn2Cc2ccco2)oc2cc(Br)ccc12` registered an RP-LC retention time of 1020 s.

In turn, `CCC1CCCCN1Cc1nc(Cn2ccn3nc(-c4ccc(C)cc4)cc3c2=O)no1` (stereo unspecified) showed an RP-LC retention time of 726 s.

`CCCn1c(-c2cccc(C(=O)NCc3cccc(Br)c3)c2)nc2cccnc21` showed an RP-LC retention time of 894 s.

`N#Cc1cnc2ccccc2c1N1CCC(C(=O)N2CCc3ccccc3C2)CC1` showed an RP-LC retention time of 711 s.

Turning to `Cc1nc(-c2csc(S(=O)(=O)NCc3ccc(F)cc3Cl)c2)sc1C`, the RP-LC retention time was found to be 1070 s.

On to `CC(C)CN1C(=O)c2cccn2CC1C(=O)NCc1ccco1` (stereo unspecified), for which the RP-LC retention time came out at 733 s.

As to `Cc1cc(Cl)ccc1NC(=O)Cn1ccc2sccc2c1=O`, the RP-LC retention time is 764 s.

`CSc1ccc(-c2noc(CN3C(=O)COc4ccccc43)n2)cc1` gave an RP-LC retention time of 1110 s.

Consider `CCOc1ccccc1CN1C[C@@H]2C(=O)N(Cc3ccc4c(c3)OCO4)C(=O)[C@@H]2C1`, for which the RP-LC retention time was determined as 727 s.

As to `CCC(=O)N1CCc2c(C(=O)N3CCOCC3)cccc21`, the RP-LC retention time was found to be 630 s.

The compound `Cn1cnnc1C1CCCCN1C(=O)c1ccc2c(c1)OCO2` (stereo unspecified) returned an RP-LC retention time of 618 s.

In the case of `O=C(NCCCN1CCOCC1)c1ccc(-c2cnc(NC3CCCCC3)nc2)cc1`, the RP-LC retention time was determined as 655 s.

On to `CN1c2ccccc2C(=O)NC12CCN(C(=O)c1ccccc1F)CC2`, for which the RP-LC retention time came to 712 s.

Turning to `Cc1noc(CNC(=O)CN(C)c2nc3c(F)cccc3s2)n1`, the RP-LC retention time was 667 s.

`CC(C)(C)c1noc(-c2ccc(=O)n(Cc3ccc(Cl)cc3)n2)n1` displayed an RP-LC retention time of 1120 s.

In turn, `COc1cc([C@@H]2c3cc4c(cc3[C@H](O)[C@@H](CO)[C@@H]2C(=O)NCc2cc(F)cc(F)c2)OCO4)cc(OC)c1OC` displayed an RP-LC retention time of 737 s.

`COc1ccc(S(=O)(=O)Nc2cc(-c3cn4ccccc4n3)ccc2C)cc1` returned an RP-LC retention time of 797 s.

Compound `COc1ccc(S(=O)(=O)N2CCC(n3cnc4ccc(C)cc4c3=O)CC2)cc1OC` showed an RP-LC retention time of 827 s.

On to `Cc1nc(-c2nnn(-c3ccc(F)cc3)c2C)no1`, for which the RP-LC retention time was found to be 789 s.

The compound `COc1cc(OC)cc(C(=O)N2CCC3(CC2)NC(=O)c2ccc(Cl)cc2N3)c1` had an RP-LC retention time of 742 s.

As to `COCCN1CCn2cc(S(=O)(=O)Nc3ccc(OC)c(Cl)c3)cc2C1=O`, the RP-LC retention time stood at 726 s.
